Measured values taken from the supplement of paper PMC10307832.

Columns and labels:
Experiment in all cases: relative viability (nuclei count vs DMSO), 5 days (fraction); higher = more cells survive
[1] = test system: LOU-NH91
How it was run: (§1)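 Lung cancer cell lines in 1536-well plates were dosed by pin tool the day after seeding, either with one drug alone or with a fixed anchor-drug dose plus five library-drug doses (not always all listed) in √10 steps. After 5 days, cells were fixed and their nuclei stained in one step (final 0.05% Triton X-100, 1% formaldehyde, 1 ug/ml Hoechst), then counted on 4× images. Relative viability is the nuclei count in treated wells divided by that in vehicle wells. Values are medians of duplicate plates.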

[2] = test system: EPLC-272H
How it was run: as §1

[3] = test system: UMC-11
How it was run: as §1

[4] = test system: H3255
How it was run: as §1

[5] = test system: NCI-H2405
How it was run: as §1

[6] = test system: NCI-H1975
How it was run: as §1

[7] = test system: NCI-H1355
How it was run: as §1

[8] = test system: 201T
How it was run: as §1

[9] = test system: NCI-H1792
How it was run: as §1

[10] = test system: NCI-H1944
How it was run: as §1

[11] = test system: NCI-H1651
How it was run: as §1

[12] = test system: NCI-H1666
How it was run: as §1

[13] = test system: NCI-H1793
How it was run: as §1

[14] = test system: SK-LU-1
How it was run: as §1

[15] = test system: NCI-H2023
How it was run: as §1

[16] = test system: NCI-H441
How it was run: as §1

[17] = test system: NCI-H1734
How it was run: as §1

[18] = test system: NCI-H647
How it was run: as §1

[19] = test system: RERF-LC-KJ
How it was run: as §1

[20] = test system: NCI-H1915
How it was run: as §1

`COCC1(CO)C(=O)C2CCN1CC2` (configuration not stated) [PRIMA-1MET] + CC1(C)CCC(c2ccc(Cl)cc2)=C(CN2CCN(c3ccc(C(=O)NS(=O)(=O)c4ccc(N[C@H](CCN5CCOCC5)CSc5ccccc5)c(S(=O)(=O)C(F)(F)F)c4)cc3)CC2)C1 [Navitoclax] (partner 0.5 µM) was tested, and the relative viability ([1]; first compound 0.2 µM) was 0.729, the relative viability ([1]; first compound 0.6325 µM) was 0.677 and the relative viability ([1]; first compound 2 µM) was 0.589. It also gave a relative viability ([1]; first compound 6.325 µM) of 0.601, a relative viability ([1]; first compound 20 µM) of 0.383 and a relative viability ([2]; first compound 0.2 µM) of 1.33. It also gave a relative viability ([2]; first compound 0.6325 µM) of 0.933, a relative viability ([2]; first compound 2 µM) of 1.15 and a relative viability ([2]; first compound 6.325 µM) of 1.15. The relative viability ([2]; first compound 20 µM) was 0.989, the relative viability ([3]; first compound 0.2 µM) was 0.347 and the relative viability ([3]; first compound 0.6325 µM) was 0.268. The relative viability ([3]; first compound 2 µM) was 0.332, the relative viability ([3]; first compound 6.325 µM) was 0.331 and the relative viability ([3]; first compound 20 µM) was 0.333. It also gave a relative viability ([4]; first compound 0.2 µM) of 0.557, a relative viability ([4]; first compound 0.6325 µM) of 0.522 and a relative viability ([4]; first compound 2 µM) of 0.515. The relative viability ([4]; first compound 6.325 µM) was 0.544, the relative viability ([4]; first compound 20 µM) was 0.354 and the relative viability ([5]; first compound 0.2 µM) was 0.676. The relative viability ([5]; first compound 0.6325 µM) was 0.989, the relative viability ([5]; first compound 6.325 µM) was 0.52 and the relative viability ([5]; first compound 20 µM) was 0.078. It also gave a relative viability ([6]; first compound 0.2 µM) of 1.13, a relative viability ([6]; first compound 0.6325 µM) of 1.03 and a relative viability ([6]; first compound 2 µM) of 1.12. It also gave a relative viability ([6]; first compound 6.325 µM) of 1.21, a relative viability ([6]; first compound 20 µM) of 0.96 and a relative viability ([7]; first compound 0.2 µM) of 1.08. It also gave a relative viability ([7]; first compound 0.6325 µM) of 0.791, a relative viability ([7]; first compound 2 µM) of 0.804 and a relative viability ([7]; first compound 6.325 µM) of 0.947. For the same compound, the relative viability ([7]; first compound 20 µM) was 0.944, the relative viability ([8]; first compound 0.2 µM) was 1.31 and the relative viability ([8]; first compound 0.6325 µM) was 1.17. For the same compound, the relative viability ([8]; first compound 2 µM) was 1.13, the relative viability ([8]; first compound 6.325 µM) was 1.27 and the relative viability ([8]; first compound 20 µM) was 1.2. For the same compound, the relative viability ([9]; first compound 0.2 µM) was 0.525, the relative viability ([9]; first compound 0.6325 µM) was 0.48 and the relative viability ([9]; first compound 2 µM) was 0.589. The relative viability ([9]; first compound 6.325 µM) was 0.617, the relative viability ([9]; first compound 20 µM) was 0.544 and the relative viability ([10]; first compound 0.2 µM) was 1.18. For the same compound, the relative viability ([10]; first compound 0.6325 µM) was 0.892, the relative viability ([10]; first compound 6.325 µM) was 1.02 and the relative viability ([10]; first compound 20 µM) was 1.08. It also gave a relative viability ([11]; first compound 0.2 µM) of 1.15, a relative viability ([11]; first compound 0.6325 µM) of 1 and a relative viability ([11]; first compound 2 µM) of 0.918. The relative viability ([11]; first compound 6.325 µM) was 1.19, the relative viability ([11]; first compound 20 µM) was 0.974 and the relative viability ([12]; first compound 0.2 µM) was 1.01. The relative viability ([12]; first compound 0.6325 µM) was 0.858, the relative viability ([12]; first compound 2 µM) was 1.03 and the relative viability ([12]; first compound 6.325 µM) was 0.895. For the same compound, the relative viability ([12]; first compound 20 µM) was 0.249, the relative viability ([13]; first compound 0.2 µM) was 0.576 and the relative viability ([13]; first compound 0.6325 µM) was 0.446. For the same compound, the relative viability ([13]; first compound 6.325 µM) was 0.609, the relative viability ([13]; first compound 20 µM) was 0.49 and the relative viability ([14]; first compound 0.2 µM) was 0.848. The relative viability ([14]; first compound 0.6325 µM) was 1.06, the relative viability ([14]; first compound 2 µM) was 0.789 and the relative viability ([14]; first compound 6.325 µM) was 1.15. For the same compound, the relative viability ([14]; first compound 20 µM) was 0.0933, the relative viability ([15]; first compound 0.2 µM) was 1.04 and the relative viability ([15]; first compound 0.6325 µM) was 0.999. It also gave a relative viability ([15]; first compound 2 µM) of 0.992, a relative viability ([15]; first compound 6.325 µM) of 1.07 and a relative viability ([15]; first compound 20 µM) of 0.977. For the same compound, the relative viability ([16]; first compound 0.2 µM) was 0.561, the relative viability ([16]; first compound 0.6325 µM) was 0.334 and the relative viability ([16]; first compound 2 µM) was 1.02. It also gave a relative viability ([16]; first compound 6.325 µM) of 0.644, a relative viability ([16]; first compound 20 µM) of 0.0807 and a relative viability ([17]; first compound 0.2 µM) of 0.943. For the same compound, the relative viability ([17]; first compound 0.6325 µM) was 0.772, the relative viability ([17]; first compound 2 µM) was 0.744 and the relative viability ([17]; first compound 6.325 µM) was 0.922. It also gave a relative viability ([17]; first compound 20 µM) of 0.221, a relative viability ([18]; first compound 0.2 µM) of 1.15 and a relative viability ([18]; first compound 0.6325 µM) of 1. It also gave a relative viability ([18]; first compound 2 µM) of 0.889, a relative viability ([18]; first compound 6.325 µM) of 1.24 and a relative viability ([18]; first compound 20 µM) of 0.909. The relative viability ([19]; first compound 0.2 µM) was 1.33, the relative viability ([19]; first compound 0.6325 µM) was 0.929 and the relative viability ([19]; first compound 2 µM) was 0.833. For the same compound, the relative viability ([19]; first compound 6.325 µM) was 0.837, the relative viability ([19]; first compound 20 µM) was 0.814 and the relative viability ([20]; first compound 0.2 µM) was 0.766. For the same compound, the relative viability ([20]; first compound 0.6325 µM) was 0.586, the relative viability ([20]; first compound 2 µM) was 0.642 and the relative viability ([20]; first compound 6.325 µM) was 0.773. For the same compound, the relative viability ([20]; first compound 20 µM) was 0.778.
